# Results taken from PMC13224100, “Esterase-Responsive Mitochondria-Targeted Hydropersulfide Donors Mitigate Doxorubicin Cardiotoxicity While Preserving Anticancer Activity” (Angewandte Chemie (International ed. in English), 2025).
# Assays:
# [1] = Cytoprotection against DOX-induced toxicity, CCK-8 assay; type: cell-based; conditions: rat, H9c2 cells; DOX 5 μM, 24 h, CCK-8; read-out: cell viability, DOX alone
# Method: (§1) We evaluated the cytoprotective effects of RSSH precursors against DOX-induced cardiotoxicity in H9c2 cardiomyoblasts. First, we assessed the cytotoxicity of the RSSH donors (AST-2, APT-1, AST-2-TPP, and APT-1-TPP) using the CCK-8 assay.[24] […] To evaluate cytoprotection, H9c2 cells were pretreated with RSSH donors for 4 h, followed by 24 h co-treatment with DOX (5 μM). As expected, DOX alone reduced cell viability to ca. 50% (Figure 4a). […] Although both compounds were protective, no enhancement of potency was observed upon TPP conjugation. […] A distinctive feature of our study is the direct comparison between mitochondria-targeted and non-targeted RSSH donors. […] TPP conjugation only modestly enhances the cytoprotective effects of RSSH donors under our experimental conditions. This outcome may reflect the intrinsic high efficacy of non-targeted RSSH donors, thereby limiting the additional benefit of mitochondrial targeting.
# (§2) Figure 4. Protective effects of RSSH donors against DOX-induced cytotoxicity in H9c2 cells. Cells were pretreated with RSSH donors for 4 h, followed by exposure to DOX (5 μM) for an additional 24 h. Cell viability was assessed using the cell counting Kit-8 (CCK-8) assay. Results are expressed as mean ± SEM, n = 3; *P < 0.05, **P < 0.01, ***P < 0.001, ****P < 0.0001. Ctl = vehicle-treated group (0.01% DMSO in medium). […]
# (§3) Cytoprotective Effects of RSSH Donors against Doxorubicin Toxicity
# (§4) Cytoprotective studies were performed as previously described.[8] Briefly, H9c2 cells, HepG2 cells, MDA-MB-468 cells, and MCF-7 cells were seeded at a density of 7 x 10^3 cells/well. […] Additionally, in the vehicle control group, cells were treated with medium (DMEM with 10% FBS) containing 0.01% DMSO only. The cells were then further incubated for an additional 4 h before being treated with DOX (10 μL/well, with final concentration of 5 μM). After a 24 h co-incubation with DOX, each well was carefully washed three times with PBS (pH 7.4) and 100 μL o f F B S-free medium containing 10% v/v CCK-8 (Dojindo) was added. The plates were then incubated for 1-2 h before measuring absorbance at […]
# (§5) The relative % cell viability was calculated as 100 times the ratio of Abs450 (RSSH donor + DOX-exposed) to Abs450 (vehicle, non-DOX-exposed). Each treatment condition was performed in 6 technical replicates per biological replicate, and the experiment was independently repeated three times (n = 3 biological replicates). Data are presented as mean ± SEM. […]
# H9c2 cells [2] = assay: Mitochondrial membrane potential (TMRM) under DOX; type: cell-based; conditions: DOX 5 μM, 24 h, TMRM
# Method: (§6) Figure 6. a) Basal sulfane sulfur (SS) levels in H9c2 cardiomyocyte, MDA-MB-468, MCF-7, and HepG2 cell lines as detected by SSP4 fluorescence. b) Representative images and c) basal levels of mitochondrial membrane potential (MMP) in H9c2 and cancer cells (MDA-MB-468, MCF-7, and HepG2). d) Impact of APT-1 (25 μM) or APT-1-TPP (25 μM) on MMP in DOX (5 μM)-treated (d) H9c2 and e) HepG2 cells. Impact of APT-1 (25 μM) and APT-1-TPP (25 μM) on ATP levels in DOX (5 μM)-treated f) H9c2 and g) HepG2 cells. Results are expressed as mean ± SEM, n = 3–6; *P < 0.05, **P < 0.01, ***P < 0.001, ****P < 0.0001. Significances in (a) and (c) are presented with respect to H9c2 cells.
# (§7) We then examined how RSSH donors influence MMP during DOX exposure. As expected, DOX alone induced mitochondrial depolarization in H9c2 cells, reducing MMP to ca. 50% of control (Figure 6d). […] To complement these observations, we quantified intracellular ATP levels as a functional readout of mitochondrial activity. […]
# Mitochondrial Membrane Potential Measurements
# Mitochondrial membrane potential was measured using Image-iT™ TMRM Reagent (Cat#I34361, Invitrogen, USA) according to the manufacturer's protocols. […]
# The cells were incubated for an additional 24 h. After completion of treatment, cells were washed with a warm clear DMEM medium (with 10% FBS) and incubated in culture media containing TMRM (working solution 100 nM) for 30 min at 37 °C. Cells were then washed with a warm clear FBS-free DMEM medium (3 times) before imaging. Images were obtained with Zeiss LSM 800 with AiryScan Confocal (λex = 548 nm, λem = 573 nm). During each experiment, 6 field images were obtained for each experimental group. Images were analyzed using Image J software, and all cells in each image were selected for fluorescence intensity measurement (cell-free space was also measured as blank). H9c2 signal intensity was set to 100% and signal intensity for all the other cell lines was shown as a percentage of that of H9c2.
# The experiments were independently repeated three times (n = 3 biological replicates). Data are […]
# Figure S24. Representative TMRM images for mitochondrial membrane potential (MMP) in H9c2 and HepG2 cells with APT-1 and APT-1-TPP treatment under DOX stress. Ctl = vehicle (medium with 0.01% […]
# (1 picture or pasted object on this page, not shown here)
# H9c2 cells [3] = assay: Intracellular ATP levels (CellTiter-Glo) under DOX; type: cell-based; conditions: DOX 5 μM, 24 h
# Method: as §6, §7
# Briefly, H9c2 cells and HepG2 cells were seeded in 96-well white-bottom plate (Alkali Scientific, SKU:TPW9096, TC-treated) at 5000 cells/well. After treatment (Ctrl, 5 μM DOX alone, 4 h pretreatment of 25 μM APT-1 + 24 h cotreatment with 5 μM DOX, and 4 h pretreatment of 25 μM APT-1-TPP + 24 h cotreatment with 5 μM DOX, in clear DMEM medium with 10% FBS), cells were equilibrated at rt for 30 min before CellTiter-Glo® reagent was added to each well. Plates were then placed on an orbital shaker for 2 min and incubated at rt for another 20 min.
# Chemiluminescence was measured using Tecan plate reader (SPARK Part No. 30124664 Version 1.7, serial No. 1909010319). Cellular AT P concentration was calculated based on the AT P calibration curve and normalized to cell count. […] Each treatment condition was performed in 6 technical replicates per biological replicate, and the experiment was independently repeated three times (n = 3 biological replicates).
# Data are presented as mean ± SEM. […]
# H9c2 cells [4] = assay: Cytoprotection against DOX-induced toxicity, CCK-8 assay; type: cell-based; conditions: 4 h pretreatment, then 24 h co-treatment with DOX 5 μM
# Method: as §1, §2, §3, §4, §5
# [5] = Aqueous stability of RSSH precursors in PBS; type: physicochemical; conditions: PBS pH 7.4, 37 °C, over 9 h
# Method: We synthesized AST-2 as an esterase-sensitive RSSH donor via reaction of N-acetylpenicillamine methyl ester with methoxycarbonyl sulfenyl chloride in dichloromethane at 0 °C, affording the product in 72% yield (see Scheme S1). We first evaluated the aqueous stability of AST-2 in phosphate-buffered saline (PBS, pH 7.4) at 37 °C.
# APT-1 was synthesized in 93% overall yield via a one-pot two-step sequence: N-acetylpenicillamine methyl ester was reacted with chlorocarbonylsulfenyl chloride to afford an S-perthiocarbonyl chloride intermediate, which was subsequently treated with 2-acetoxy-N-methylethan-1-aminium chloride in the presence of triethylamine (see Supporting Information).
# We first evaluated the aqueous stability of the mitochondria-targeted analogs AST-2-TPP and APT-1-TPP. […] APT-1-TPP similarly retained excellent stability, with < 5% degradation over 41 h (Figure S1D).
smiles,measurement,setting,value
"COc1cccc2c1C(=O)c1c(O)c3c(c(O)c1C2=O)C[C@@](O)(C(=O)CO)C[C@@H]3O[C@H]1C[C@H](N)[C@H](O)[C@H](C)O1 [DOX, Doxorubicin]","viability at 24 h, 5 µM",[1],~50%
same,"MMP, DOX alone",H9c2 cells [2],ca. 50 % of control
same,"ATP level, DOX alone",H9c2 cells [3],significantly depleted ATP
"COC(=O)[C@@H](NC(C)=O)C(C)(C)S [Pen-SH, N-acetyl penicillamine methyl ester, reference compound]",protection against DOX-induced cytotoxicity,H9c2 cells [4],failed to mitigate DOX-induced cytotoxicity
"COC(=O)C(NC(C)=O)C(C)(C)SSC(=O)Oc1ccccc1 (centres unmarked) [AST-1, reference compound]",decomposition (aqueous stability),[5],complete degradation
